Two molecules from US20100216875A1, “METHODS OF TREATING ALZHEIMER'S DISEASE” (priority 2006, published 2010) can be followed below.

The structures appear in SMILES notation.

Common to all, as to assay type: in vivo, mouse
Assay [1] has as its system APPswe/In mice. Kind of assay: amyloid load, Aβ, CTFβ and sAPPα in APPswe/In mice. Particulars: Mean + % SEM. Here is the method: (§1) Cathepsin B inhibitors were also evaluated in another transgenic mouse that expressed human APP containing both the Swedish mutant β-secretase and the London γ-secretase site (APPswe/In).
The mouse model of AD expressing human APP containing the Swe mutant β-secretase site and the London mutation (APPswe/In) also overproduce Aβ, and develop neuropathology and behavior that mimic AD. APPswe/In was generated by site-directed mutagenesis at the β-secretase site of the APPIn to convert Lys-Met to the mutant Asn-Leu. Both APPswe/In and APPIn mouse strains were created in a C57BL/6 mouse background using the Thy-1.2 expression cassette driven by the Thy-1 promoter containing an SV40 polyadenylation site. The APPswe/In mice differ from the APPIn in that APPswe/In mice contain the Swedish mutant β-secretase site rather than the wt β-secretase site found in APPIn.
Direct icy infusion into the brain was the first route of administration to be tested to establish the effectiveness of reversible inhibitors in the brain to provide cognitive improvement, and reduction in brain Aβ peptides and amyloid plaques. Icy infusion was performed as described above for the irreversible inhibitors with use of the Alzet minipump. The initial dose utilized was the same dosage used for E64d and CA074Me in the APPIn mice or APPswe/In mice Administration of these compounds began at approximately 1-2 months of age and infusion was conducted for periods of 1, 2, 4, and 8 months (or other time periods). Administration of the select reversible compounds by direct icy infusion into mouse brains was conducted initially at 0.025 μl/hr of 1 mg/ml, other doses may be examined based on results with the first dose. Each time point was conducted with about 8-10 animals and 8-10 normal control animals (age-matched) (or greater number of mice per treatment group, if necessary, for appropriate statistical evaluation). At the end of each of these infusion periods, cognitive testing and assessment of Aβ peptide levels with plaque pathology was evaluated. At each of these time points, mice were tested for cognition, and then sacrificed for evaluation of Aβ and neuropathology in the brain
After behavioral testing was completed, the mice were sacrificed for analyses of Aβ40 and Aβ42 peptide levels, and neuropathology. One half brain (one hemisphere) was utilized to prepare brain extracts for measurement of Aβ40 and Aβ42 levels by ELISA assays, and the other half brain was used for neuropathological evaluation. Procedures for preparation of brain extracts and ELISA assays for Aβ peptides are those used for analyses of guinea pig brains
Aβ-related neuropathology was assessed in cortex and hippocampus of brains. The relative extent of Aβ immunoreactivity in neurons and glial cells was assessed. Immunostaining for Aβ was conducted as described previously (58) Aβ-related neuropathology was assessed in cortex and hippocampus of brains, as well as other regions of the brain as controls. Brain tissue was fixed in 4% paraformaldehyde overnight, and then processed to paraffin. Serial sections were obtained, deparaffinized and washed in TBS buffer. Each section was blocked with appropriate normal serum (mouse or rabbit), and subjected to primary anti-Aβ antibody for detection of amyloid deposits. Sections were then stained with DAB ([…]) with the Vector ABC Elite kit (Vector Laboratories). Amyloid areas were imaged with microscopic computer-assisted analysis system using the NIH Image Analysis Software.

Assay [2] has as its system APPswe/In mice. Kind of assay: Morris water maze test in APPswe/In mice. Particulars: Mean + % SEM; for Latency Period: same treatment as APPIn mice. The protocol: as §1
(§2) The status of memory impairment in the APPIn or APPswe/In mice with and without administration of select compounds was assessed by the Morris water maze test. The water maze test is widely used in mouse AD animal models to evaluate cognitive impairment in such AD models. Water maze tests were conducted as previously described (87-89).
Drug-treated and vehicle-treated mice were tested in the Morris water maze test. Mice were trained in a 1.2 meter open field water maze. The pool was filled to a depth of 30 cm with water and maintained at 25° C. The escape platform (10 cm square) was placed 1 cm below the surface of the water. During the trials, the platform was removed from the pool. The cued test was carried out in the pool surrounded with white curtains to hide any extra-maze cues. Aβ animals underwent non-spatial pretraining (NSP) for three consecutive days. These trials were to prepare the animals for the final behavioral test to determine whether there was sufficient retention of memory to find the platform. These trials were not recorded since they were for training purposes only. For the training and learning studies, the curtains were removed to extra maze cues to allow identification of animals with swimming impairments. On day 1, the mice were placed on the hidden platform for 20 seconds (trial 1), for trials 2-3 animals were released in the water at a distance of 10 cm from the cued-platform or hidden platform (trial 4) and allowed to swim to the platform. On the second day of trails, the hidden platform was moved randomly between the center of the pool and the center of each quadrant. The animals were released into the pool, randomly facing the wall and were allowed 60 seconds to reach the platform (3 trials). In the third trial, animals were given three trials, two with a hidden platform and one with a cued platform. Two days following the NSP, the animals were subjected to final behavioral trials (Morris water maze test). For these trials (3 per animal), the platform was placed in the center of one quadrant of the pool and the animals were released facing the wall in a random fashion. Each animal was allowed to find the platform or swim for 60 seconds (latency period, the time it takes to find the platform). Aβ animals were tested within 4-6 hours of dosing and were randomly selected for testing by an operator blinded to the test group.

The subject of assay [3] is transgenic APPIn mice (London mutant human APP). The experiment in a line: Morris water maze test in transgenic APPIn mice. Particulars: icv 0.015 mg/kg/day, 28 days, p<0.005. Here is the method: Transgenic mice expressing human APP containing the London mutation (APPIn) mimic AD function and pathology in that they are cognitively deficient, have brain amyloid plaque and elevated Aβ (8). […] CA074Me or E64d were administered by icy infusion in brains (0.015 mg/kg/day) for 28 days (8 animals per treatment group).
Thus, irreversible cathepsin B inhibitors are efficacious in this AD animal model, causing an 80% improvement in cognitive function and a 50% decrease in amyloid plaque load and brain Aβ. Thus, these tests indicate that Cathepsin B inhibitors are effective at reversing the cognitive deficit caused by AD
as §2
Drug-treated and vehicle-treated mice were tested in the Morris water maze test. Mice were trained in a 1.2 meter open field water maze. The pool was filled to a depth of 30 cm with water and maintained at 25° C. The escape platform (10 cm square) was placed 1 cm below the surface of the water. During the trials, the platform was removed from the pool. […] These trials were not recorded since they were for training purposes only. […]

As to `CCOC(=O)[C@H]1O[C@@H]1C(=O)N[C@@H](CC(C)C)C(=O)NCCC(C)C` [E64d], in the assay with APPswe/In mice [1], the Amyloid load is 1.06 + 4%, the Aβ40 is listed as 92 + 7%, the Aβ42 is on record as 101 + 3% and the CTFβ is 100 + 3%. Also, the sAPPα with APPswe/In mice [1] is reported as 98 + 3%. Also, in the assay on APPswe/In mice [2], the “Distance Traveled” value is reported as 270 + 12% and the “Latency Period” value is 40 + 10%. In assay [3], the “average latency period (Morris water maze) vs control” value is “significantly lower average latency period”.

Consider `CCCNC(=O)[C@H]1O[C@@H]1C(=O)N[C@H](C(=O)N1CCC[C@H]1C(=O)OC)[C@@H](C)CC` [CA074Me], for which, in the assay with APPswe/In mice [1], the Amyloid load is 1.07 + 4%, the Aβ40 was 91 + 4%, the Aβ42 is 97 + 3% and the CTFβ is reported as 97 + 3%. Moreover, the sAPPα in the assay on APPswe/In mice [1] was 101 + 4%. In the assay with APPswe/In mice [2], the “Distance Traveled” value was 246 + 13% and the “Latency Period” value was 37 + 12%. Also, the “average latency period (Morris water maze) vs control” value in assay [3] is given as “significantly lower average latency period”.
